# Assay results published in patent US12419619B2, “Aspiration device” (YALE UNIVERSITY, priority 2016, dated 2025).
# Tests used:
# stem cells = conditions: novel dual-lumen device with lidocaine infusion, without pressure modulation; live porcine model, N=4, control single-hole device
# Procedure: The colony forming unit (CFU) assay is an accepted measure of relative stem cell concentrations in BMA. […] A preliminary (N=4) trial of BMA in a live porcine model was performed comparing a single-hole cancer aspiration device to the novel dual-lumen BMA method.
# [1] = intraosseous infusion; cited from earlier work
smiles,measurement,setting,value
CCN(CC)CC(=O)Nc1c(C)cccc1C [lidocaine],CFU/mL of aspirate versus control,stem cells,more than doubled
same,whole-bone anesthesia,[1],effective in whole-bone anesthesia
